Test results reported in patent US20250122234A1, “NOVEL CRYSTALLINE FORM OF [(2R,3S,4R,5R)-3,4-DIHYDROXY-5-[4-(HYDROXYAMINO)-2- OXOPYRIMIDIN-1-YL]OXOLAN-2-YL]METHYL-2-METHYLPROPANOATE” (priority 2021, published 2025).

Tests used:
influenza A viruses = system: influenza A viruses; set-up: species or system mice; settings: mouse, in vivo, po
[1] = hygroscopicity, weight increase on exposure to water vapor in climatic chamber; assay type: physicochemical; settings: 24 hours, temperature (25±1)°C, relative humidity (80±2)%, 200 mg sample
[2] = study of physicochemical and technological properties

SMILES | clinical symptoms of the disease (influenza A viruses) | titer of the virus in the nasal wash and fever (influenza A viruses) | X (%), increase in the weight of the test substance [1] [%] | virus titer in the nasal wash, less than in groups 2 and 3 (crystal forms I, II) (influenza A viruses) | solubility [2] | stability [2]
CC(C)C(=O)OC[C@H]1O[C@@H](n2ccc(NO)nc2=O)[C@H](O)[C@@H]1O [Polymorph I, [(2R,3S,4R,5R)-3,4-dihydroxy-5-[4-(hydroxyamino)-2-oxopyrimidin-1-yl]oxolan-2-yl]methyl-2-methylpropanoate] | some animals showed a decrease in body weight and shortness of breath | a decrease in the titer of the virus in the nasal wash and a decrease in fever | 4.1 |  |  | 
CC(C)C(=O)OC[C@H]1O[C@@H](n2ccc(NO)nc2=O)[C@H](O)[C@@H]1O [Polymorph II, [(2R,3S,4R,5R)-3,4-dihydroxy-5-[4-(hydroxyamino)-2-oxopyrimidin-1-yl]oxolan-2-yl]methyl-2-methylpropanoate] | some animals showed a decrease in body weight and shortness of breath | a decrease in the titer of the virus in the nasal wash and a decrease in fever | 5.2 |  |  | 
CC(C)C(=O)OC[C@H]1O[C@@H](n2ccc(NO)nc2=O)[C@H](O)[C@@H]1O [[(2R,3S,4R,5R)-3,4-dihydroxy-5-[4-(hydroxyamino)-2-oxopyrimidin-1-yl]oxolan-2-yl]methyl-2-methylpropanoate] | clinical symptoms of the disease were practically not recorded | a decrease in the titer of the virus in the nasal wash and a decrease in fever | 0.5 | approximately 20% | higher solubility | improving the stability
